Assay results reported in patent US10828301B2, “2,4-pyrimidinediamine compounds and their uses” (Rigel Pharmaceuticals, Inc, priority 2002, dated 2020).
Like-named read-outs stand apart in the source and are kept apart here.

Key:
[1] = system: Jurkat cells; test: Jurkat toxicity: Cell Titer Glo assay; format: cell-based; conditions: Homo sapiens, 18 hours
Protocol: Seed 50 μl cells (1×10^6/ml) into each well containing 50 μl compound. […] Shake plates for 1 minute to mix cells and compound. Incubate plates at 37° C. […] Next day, harvest 50 μl cells from each well, add to 50 μl Cell Titer Glo reagent ([…]). Shake plates for 1 minute. Read on luminometer.

[2] = system: bone marrow derived mast cells (BMMC); test: BMMC high cell density IgE activation: degranulation (hexosiminidase, histamine), leukotriene (LTC4) and cytokine (TNFalpha, IL-6) assays; format: cell-based; conditions: Mus musculus, anti-IgE activation
[3] = system: cultured human mast cells (CHMC); test: CHMC low cell density IgE activation: tryptase and LTC4 assays; format: cell-based; conditions: Homo sapiens, Mast cell, Low Density CHMC, anti-IgE activation
How it was run: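 Cultured human mast cells at low density (1000-1500 per well) rested 1 h at 37° C, then stimulated with anti-IgE for 30 min at 37° C. Supernatant tryptase measured with fluorogenic substrate (30 min, room temperature); LTC4 quantified by ELISA on diluted supernatant.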

[4] = system: cultured human mast cells (CHMC); test: CHMC low cell density ionomycin activation: tryptase assay; format: cell-based; conditions: Homo sapiens, Mast cell, Low Density CHMC, ionomycin activation, tryptase readout; read-out: CHMC Ionomycin Tryptase
[5] = Mouse model of allergic asthma (ovalbumin); format: in vivo
Source text: Mice are sensitized to ovalbumin (chicken protein) in the presence of an adjuvant (Alum) by the intraperitoneal route on day 0 and day 7. One week later, mice are challenged intranasally with ovalbumin on Days 14, 15 and 16 (more stringent model) or on Day 14 (less stringent model). This sensitization and challenge regimen leads to airway hyperresponsiveness and inflammation in the lungs, which are two dominant characteristics of human allergic asthma. In the mouse model, the in vivo airway responses are measured using a whole body plethysmograph which determines the PENH (enhanced Pause, Buxco Electronics). The PENH is a dimensionless value comprised of the peak inspiratory flow (PIF), peak expiratory flow (PEF), time of inspiration, time of expiration and relaxation time, and is considered a validated parameter of airway responsiveness. Responses to allergen challenge (OVA) are compared with animals challenged with saline only. Twenty-four hours after challenge, mice are exposed to increasing doses of methacholine (muscarinic receptor agonist) which results in smooth muscle contraction. […] In addition, a cellular infiltrate in the airway is observed in ovalbumin challenged mice when compared with the saline challenged mice. This cellular infiltrate is mainly characterized by eosinophils, but a smaller influx of neutrophils and mononuclear cells is also present.
The use of this model for the evaluation of small molecule inhibitors of mast cell degranulation has been validated is several ways. First, using mast cell deficient mice (W/W^v) it has been shown that the ovalbumin-induced responses are dependent upon the presence of mast cells.

[6] = system: cultured human mast cells (CHMC); test: CHMC high cell density IgE activation: degranulation (hexos, tryptase, histamine), leukotriene (LTC4) and cytokine (TNFalpha, IL-13) assays; format: cell-based; conditions: anti-IgE activation
Protocol: After sensitizing, cells are counted, pelleted (1000 rpm, 5-10 minutes), and resuspended at 1-2×10^6 cells/ml in MT buffer. Add 100 ul of cell suspension to each well and 100 ul of compound dilutions. The final vehicle concentration is 0.5% DMSO. Incubate at 37° C. (5% CO2) for 1 hour. After 1 hour of compound treatment, stimulate cells with 6× anti-IgE. Mix wells with the cells and allow plates to incubate at 37° C. (5% CO2) for one hour. After 1 hour incubation, pellet cells (10 minutes, 1000 RPM) and collect 200 ul per well of the supernatant, being careful not to disturb pellet. Place the supernatant plate on ice. During the 7-hour step (see next) perform tryptase assay on supernatant that had been diluted 1:500. Resuspend cell pellet in 240 ul of CM media containing 0.5% DMSO and corresponding concentration of compound. Incubate CHMC cells for 7 hours at 37° C. (5% CO2). After incubation, pellet cells (1000 RPM, 10 minutes) and collect 225 ul per well and place in −80° C. until ready to perform ELISAS. ELISAS are performed on appropriately diluted samples (determined empirically for each donor cell population so that the sample measurement falls within the standard curve) following the supplier's instructions.

[7] = IL-6 release, read-out: BMMC anti-IgE IL-6 IC50
[8] = LTC4 release, read-out: BMMC anti-IgE LTC4 IC50
[9] = TNF-alpha release, read-out: BMMC anti-IgE TNF-alpha IC50
[10] = hexosaminidase release, read-out: BMMC anti-IgE hexos IC50
[11] = histamine release, read-out: BMMC anti-IgE histamine IC50
[12] = tryptase readout, read-out: CHMC anti-IgE Tryptase
[13] = LTC4, read-out: CHMC high density LTC4
[14] = TNF-alpha, read-out: CHMC high density TNF-alpha
[15] = hexosaminidase release, read-out: CHMC high density hexos
[16] = histamine release, read-out: CHMC high density histamine
[17] = tryptase release, read-out: CHMC high density tryptase

For `Oc1cccc(Nc2nc(Nc3ccc4c(c3)N=CCO4)ncc2F)c1` [Compound R909241, N2-(1,4-Benzoxazin-6-yl)-5-fluoro-N4-(3-hydroxyphenyl)-2,4-pyrimidinediamine], the IC50 [1] was 3.74 µM, the IC50 [2, 7] was less than 0.22 µM and the IC50 [2, 8] was 1.02 µM. The IC50 [2, 9] was 0.253 µM, the IC50 [2, 10] was less than 0.22 µM and the IC50 [2, 11] was less than 0.22 µM. The IC50 [3, 12] was 0.181 µM and the IC50 [4] was greater than 10 µM.

With `CNC(=O)COc1cccc(Nc2ncc(F)c(Nc3ccc4c(n3)NC(=O)CO4)n2)c1` [Compound R921304, 5-Fluoro-N2-(3-methylaminocarbonylmethyleneoxyphenyl)-N4-[2H-pyrido[3,2-b]-1,4-oxazin-3(4H)-one-6-yl]-2,4-pyrimidinediamine] the “ovalbumin-induced airway hyperresponsiveness to methacholine” value ([5]; intranasal, 10 consecutive days (Day 7 through Day 16), 20 mg/kg) was “able to inhibit the ovalbumin-induced airway hyperresponsiveness to methacholine” and the “airway responses in a mouse model of allergic asthma” value ([5]; summary) was “efficacious in inhibiting the airway responses”.

`CNC(=O)c1cc2cc(Nc3ncc(F)c(Nc4cccc(O)c4)n3)ccc2o1` [Compound R926493, 5-Fluoro-N4-(3-hydroxyphenyl)-N2-[2-(N-methylamino)carbonylbenzofuran-5-yl]-2,4-pyrimidinediamine] showed an IC50 [1] greater than 4.33 µM, an IC50 [6, 13] of 0.474 µM and an IC50 [6, 14] greater than 2 µM. It also gave an IC50 [6, 15] of 0.889 µM, an IC50 [6, 16] of 1.32 µM and an IC50 [6, 17] of 1.09 µM. It also gave an IC50 ([3]; LTC4 readout, read-out: CHMC anti-IgE LTC4) of 0.078 µM, an IC50 [3, 12] of 0.25 µM and an IC50 [4] of 9.18 µM.

In the case of `NC12OCCON1C(Nc1ccc3oc(CO)cc3c1)=NC=C2F` (stereo not shown) [Compound R926696, N4-(3,4-Ethylenedioxy)-5-fluoro-N2-[2-(hydroxymethyl)benzofuran-5-yl]-2,4-pyrimidinediamine], the IC50 [1] is reported as greater than 5 µM, the IC50 ([6]; IL-13, read-out: CHMC high density IL-13) is reported as 1.77 µM and the IC50 [6, 13] is reported as less than 1.1 µM. For the same compound, the IC50 [6, 14] was less than 1.1 µM, the IC50 [6, 15] was less than 1.1 µM and the IC50 [6, 16] was less than 1.1 µM. For the same compound, the IC50 [6, 17] was less than 1.1 µM, the IC50 [3, 12] was 0.309 µM and the IC50 [4] was greater than 10 µM.

In the case of `OCCOc1cccc(Nc2ncc(F)c(Nc3ccc4c(c3)OCCO4)n2)c1` [Compound R935154, N4-(3,4-Ethylenedioxyphenyl)-5-fluoro-N2-[3-(2-hydroxyethoxy)phenyl]-2,4-pyrimidinediamine], the IC50 [1] is reported as greater than 4.33 µM, the IC50 [2, 7] is reported as 0.041 µM and the IC50 [2, 8] is reported as 0.547 µM. For the same compound, the IC50 [2, 9] was 0.131 µM, the IC50 [2, 10] was 0.104 µM and the IC50 [2, 11] was 0.085 µM. The IC50 [3, 12] was 0.127 µM and the IC50 [4] was greater than 10 µM.

For `CC(C)Oc1ccc(Nc2nc(Nc3cccc(OCCO)c3)ncc2F)cc1` [Compound R935156, 5-Fluoro-N2-[3-(2-hydroxyethoxy)phenyl]-N4-(4-isopropoxyphenyl)-2,4-pyrimidinediamine], the IC50 [1] was 4.05 µM, the IC50 [2, 7] was less than 0.22 µM and the IC50 [2, 8] was 0.433 µM. It also gave an IC50 [2, 9] of 0.22 µM, an IC50 [2, 10] of less than 0.22 µM and an IC50 [2, 11] of less than 0.22 µM. It also gave an IC50 [3, 12] of 0.149 µM and an IC50 [4] greater than 10 µM.

Compound `Nc1cccc(Nc2ncc(F)c(Nc3ccc4c(c3)OCCO4)n2)c1` [Compound R950207, N2-(3-Aminophenyl)-N4-(3,4-ethylenedioxyphenyl)-5-fluoro-2,4-pyrimidinediamine] has an IC50 [1] greater than 4.33 µM, an IC50 [2, 7] of less than 0.22 µM and an IC50 [2, 8] of 0.288 µM. The IC50 [2, 9] was less than 0.22 µM, the IC50 [2, 10] was less than 0.22 µM and the IC50 [2, 11] was less than 0.22 µM. The IC50 [3, 12] was 0.164 µM and the IC50 [4] was greater than 10 µM.

In the case of `O=C(O)c1cc(=O)c2c(OCC(O)COc3cccc4oc(C(=O)O)cc(=O)c34)cccc2o1` [Cromolyn, reference compound], the “ovalbumin-induced airway hyperresponsiveness and inflammation” value ([5]; model validation, data not shown) is reported as “able to block the ovalbumin-induced airway hyperresponsiveness and inflammation”.

In the case of `CCCC1O[C@@H]2C[C@H]3[C@@H]4CCC5=CC(=O)C=C[C@]5(C)[C@H]4[C@@H](O)C[C@]3(C)[C@]2(C(=O)CO)O1` (stereo partly shown) [budesonide, reference compound], the methacoline-induced bronchocontriction ([5]; model validation) is reported as “inhibitory effect”.

In the case of `C[C@@H]1C[C@H]2[C@@H]3CCC4=CC(=O)C=C[C@]4(C)[C@@]3(F)[C@@H](O)C[C@]2(C)[C@@]1(O)C(=O)CO` [dexamethasone, reference compound], the methacoline-induced bronchocontriction ([5]; model validation) is reported as “inhibitory effect”.
